Assay results as given in patent US20040058957A1, “Benzothiophene derivatives and herbicidal compositions containing the same” (priority 2000, published 2004).

What was measured:
Assay type in all cases: in vivo
Conditions in all cases: rated 30 days after application
[1] = system: Scirpus juncoides; assay: Submersion test, treatment 3 days after transplantation: herbicidal effect
Experimental: (§1) A mixture consisting of 57 parts by weight of talc and 40 parts by weight of bentonite as carrier and 3 parts by weight of sodium alkylbenzenesulfonate as surfactant was pulverized and mixed uniformly to obtain a carrier for wettable powder. Each herbicidal composition was prepared by uniformly pulverizing and mixing 90 parts by weight of the carrier for wettable powder and 10 parts by weight of the benzothiophene derivative produced in each example.
(§2) Seeds of Scirpus juncoides were sowed onto paddy field soil in a Wagner pot of 1/2000 are. Then, rice seedlings of 2.5 leaf stage were transplanted in the soil. Water was pored into the pot so as to submerge the soil at a depth of 3 cm. The pot was placed in a greenhouse maintained at 20 to 25° C. for vegetation. After 3 days from transplantation of the rice seedlings, a predetermined amount of the herbicidal composition prepared in the step [1] was applied to the pot. After 30 days from the application of the herbicidal composition, the herbicidal effect and injury to the paddy rice were determined.
(§3) The herbicidal effect and the injury to crops in the above tests (1) and (2) were evaluated based on the following ratings.
(§4) The degree of weed control (%) was calculated from the weights of the above-ground parts of fresh weeds in the treated area and the untreated area using the following equation:
(§5) Degree of weed control (%)=[1−(weight of weeds in treated area)/(weight of weeds in untreated area)]×100
(§6) The herbicidal effect was determined according to the following ratings: […]

[2] = system: paddy rice; assay: Submersion test, treatment 3 days after transplantation: injury to paddy rice; design: key: 0: No injury; 1: Substantially no injury; 2: Slight injury; 3: Some injury; 4: Remarkable injury; 5: Almost all crops dead
Experimental: A mixture consisting of 57 parts by weight of talc and 40 parts by weight of bentonite as carrier and 3 parts by weight of sodium alkylbenzenesulfonate as surfactant was pulverized and mixed uniformly to obtain a carrier for wettable powder. […] Then, rice seedlings of 2.5 leaf stage were transplanted in the soil. Water was pored into the pot so as to submerge the soil at a depth of 3 cm. The pot was placed in a greenhouse maintained at 20 to 25° C. for vegetation. […] After 30 days from the application of the herbicidal composition, the herbicidal effect and injury to the paddy rice were determined. […] The injury to crops was evaluated according to the following ratings: [table]

[3] = system: Scirpus juncoides; assay: Submersion test, treatment 10 days after transplantation: herbicidal effect
Experimental: as §1
as §2, with “vegetation. After 10 days from” for “vegetation. After 3 days from”
as §3, §4, §5, §6

Row | Compound | Herbicidal effect Scirpus juncoides ([1]; application rate 100 g/ha) | Herbicidal effect Scirpus juncoides ([1]; application rate 200 g/ha) | Injury paddy rice ([2]; application rate 100 g/ha) | Injury paddy rice ([2]; application rate 200 g/ha) | Herbicidal effect Scirpus juncoides ([3]; application rate 100 g/ha) | Herbicidal effect Scirpus juncoides ([3]; application rate 200 g/ha)
1 | CSC1Cc2c(ccc(C(=O)C3=C(SCC(C)O)CCCC3=O)c2Cl)S1(=O)=O (stereo not drawn) [Compound No. 33, 4-chloro-2-methylthio-5-[3-(2-hydroxy-1-propyl)thio-1-oxo-2-cyclohexen-2-yl]carbonyl-2,3-dihydrobenzothiophene 1,1-dioxide] | 4 (70% or higher but less than 90%) | 5 (90% or higher (almost completely dead)) | 0 | 0 | 4 (70% or higher but less than 90%) | 5 (90% or higher (almost completely dead))
2 | CSC1Cc2c(ccc(C(=O)C3=C(SCCOC(C)=O)CCCC3=O)c2Cl)S1(=O)=O (stereo not drawn) [Compound No. 34, 4-chloro-2-methylthio-5-[3-(2-acetoxyethyl)thio-1-oxo-2-cyclohexen-2-yl]carbonyl-2,3-dihydrobenzothiophene 1,1-dioxide] | 4 (70% or higher but less than 90%) | 5 (90% or higher (almost completely dead)) | 0 | 0 | 4 (70% or higher but less than 90%) | 5 (90% or higher (almost completely dead))
3 | CSC1Cc2c(ccc(C(=O)C3=C(Sc4nccn4C)CCCC3=O)c2Cl)S1(=O)=O (stereo not drawn) [Compound No. 35, 4-chloro-2-methylthio-5-[3-(1-methylimidazol-2-yl)thio-1-oxo-2-cyclohexen-2-yl]carbonyl-2,3-dihydrobenzothiophene 1,1-dioxide] | 4 (70% or higher but less than 90%) | 5 (90% or higher (almost completely dead)) | 0 | 0 | 4 (70% or higher but less than 90%) | 5 (90% or higher (almost completely dead))
4 | CCOC1=C(C(=O)c2ccc3c(c2Cl)CC(SC)S3(=O)=O)C(=O)CCC1 (stereo not drawn) [Compound No. 37, 4-chloro-2-methylthio-5-(3-ethoxy-1-oxo-2-cyclohexen-2-yl)carbonyl-2,3-dihydrobenzothiophene 1,1-dioxide] | 5 (90% or higher (almost completely dead)) | 5 (90% or higher (almost completely dead)) | 0 | 0 | 5 (90% or higher (almost completely dead)) | 5 (90% or higher (almost completely dead))
5 | CSC1Cc2c(ccc(C(=O)C3=C(N4CCC=N4)CCCC3=O)c2Cl)S1(=O)=O (stereo not drawn) [Compound No. 38, 4-chloro-2-methylthio-5-[3-(4,5-dihydropyrazol-1-yl)-1-oxo-2-cyclohexen-2-yl]carbonyl-2,3-dihydrobenzothiophene 1,1-dioxide] | 4 (70% or higher but less than 90%) | 5 (90% or higher (almost completely dead)) | 0 | 0 | 4 (70% or higher but less than 90%) | 5 (90% or higher (almost completely dead))
